Assay results reported in US9585854B2, “N-acetyl-L-cysteine for use in in vitro fertilization” (IASOMAI AB, priority 2012, dated 2017).
Where “and” joins values, the source holds several entries; their conditions need not be identical. Equal values may be shown once. Read-outs that look alike come from different tables or passages of the source.

How the values were obtained:
human spermatozoa = assay: human sperm motility bioassay (toxicity test); assay type: cell-based
Protocol: The eventual occurrence of NAC embryotoxicity was preliminary tested.
Assessments of human sperm motility were performed on fresh samples taken from 3 healthy donors with good seminal parameters including sperm motility and velocity. Migration or “Swim-up” on human sperm preparation medium was applied to select motile spermatozoa. After selection each semen sample was divided into 3 aliquots transferred to Eppendorf tubes. In addition to one control tube, two tubes had NAC added at concentrations of 100 and 1,000 nM. Tubes were incubated in a 5% CO2 environment, with constant temperature and humidity conditions for 24 hours. Sperm motility was assessed using a contrast phase microscope at a 400 times magnification after 1, and 24 hours of exposure to NAC. Assessment was performed over a fixed time interval of 2 minutes. Nine samples were assessed for sperm motility and velocity by 36 measurements (2 measurements at 1 and 24 h per sample).

Jurkat cells = assay: Cell adhesion assay of Jurkat cells on fibronectin; assay type: cell-based, human; details: NAC 5 mM for 2 h pretreatment, eosin Y absorbance 540 nm, vs control
Protocol: Cell Adhesion Assay. Seven μg/ml of human fibronectin (Sigma Aldrich Chem Co) were saturated with 2% bovine serum albumin (BSA) for 30 min at 37° C. and washed twice with phosphate buffered saline (PBS). Jurkat cells were then seeded onto the wells for 2 h at 37° C.; then, nonadherent cells were aspirated, and the wells were rinsed with PBS. Adhering cells were fixed overnight with 2% formaldehyde and stained with eosin Y for 30 min. Eosin Y was then extracted by addition of a mixture of 1% of glacial acetic acid and 50% ethanol, and absorbance was measured at 540 nm.
NAC increases the adhesions of Jurkat cells on fibronectin. The adhesion assay was performed by using control or NAC (5 mM for 2 h)-treated Jurkat cells. […] Cell adhesion was then quantitated by staining the cells attached to junction protein-coated plates with eosin Y and reading the absorbance in a microplate reader.
Cells were solubilized and eosin Y and absorbance was quantitated at 540 nm. No antibody, illustrated by black bars; anti-VLA-4 (10 ng/ml) illustrated by grey bars; and anti-VLA-4 (10 μg/ml) illustrated by white bars. Data are means+/−SE(n=3).*, P less than 0.01 vs. control. From FIG. 1 it can be concluded that NAC treatment increases adhesion (junction protein molecules).

pregnancy = assay: pulsed oral administration of NAC to patients; assay type: in vivo, human; details: three consecutive days a week
Protocol: Below is the result from giving pulsed administration of NAC to 15 patients, 8 of which became pregnant. According to this, NAC was administered to patients per os for 3 months or more according to the following schedule: 600 mg three times a day, three consecutive days a week. […] 7, no. 4, pp. 355-359, 2007.]; (2) splitting the total dose in 3 is simple for patients and, with reference to the known NAC pharmacokinetics [[…] and […], “Pharmacokinetic and pharmacodynamic studies of N-acetylcysteine, a potential chemopreventive agent during a phase I trial,” Cancer Epidemiology Biomarkers and Prevention, vol. 4, no. 3, pp. 245-251, 1995.], grants a nearly constant plasma level of the drug; (3) the four-day medication-free interval provides a washout period useful to limit the reported decrease of NAC plasma level observed during prolonged treatments. According to examples described in the specification 15 patients were treated with pulsed administration of N-acetyl-L-cysteine for use in IVF orally in a dose of 600 mg three times a day during three consecutive days followed by four days of interruption during 3 months or more.

[1] = parameters: species or system human; details: in vivo
Source text: GSH is e.g. normally conjugated to reactive metabolites formed by paracetamol and helps detoxify them. When paracetamol is overdosed GSH is however depleted and the paracetamol metabolites start reacting with cellular proteins, eventually leading to cell death. In the treatment of fulminant hepatic failure after paracetamol poisoning NAC acts instead of GSH in the detoxification of paracetamol metabolites.
The composition of the present invention, comprising NAC for the treatment of IVF according to one embodiment to be administered intravenously at a dose between approximately 50 and 150 mg/kg/day.
For overcoming this in cases of oral administration, an option is to provide NAC in a formulation with gastric protection, suitable for preventing NAC release/solubility in the stomach. Such formulations are well known in the art and may be used with the present invention. For example, tablet coatings that are resistant to gastric fluids and allow release of the drug only in the intestine, after its transit through the stomach, may be used. Commonly used formulations include polymers such as cellulose derivatives, methacrylate amino ester copolymers. […]

[2] = cited from earlier work
[3] = cited from earlier work; remark: listed apart in the source

Source text for 1-cell rabbit embryos: To verify the embryotoxicity of NAC the application of two embryotoxicity techniques—rabbit embryo bioassay and human sperm motility bioassay—were used.

CC(=O)N[C@@H](CS)C(=O)O [NAC, N-acetyl-L-cysteine]
adverse influence on human spermatozoa (human spermatozoa): failed to show an adverse influence | human sperm motility or velocity compared to controls (human spermatozoa; NAC 100 and 1,000 nM, 1 and 24 hours of exposure): no effects | embryotoxic effect (human spermatozoa; concentrations up to 50-fold therapeutic blood concentrations): failed to detect an embryotoxic effect | augmentation of cell adhesion (Jurkat cells): ~35% | pregnancy after months post NAC treatment (pregnancy; individual patients 1-8, pulsed oral NAC 600 mg three times a day): 14 months and 3 months and 1 months (2×) and 19 months and 8 months and 6 months and 0 months | patients who became pregnant (pregnancy; of 15 patients, per os 600 mg three times a day, 3 months or more): 8 | side effect of high oral doses [1]: may cause abdominal pain | survival of 1-cell rabbit embryos (1-cell rabbit embryos): not to affect the survival of 1-cell rabbit embryos | NAC plasma level after prolonged treatments ([2]; Pendyala and Creaven 1995): decrease in NAC plasma level | diffusion in tissues and cells ([2]; in vivo): freely diffuses in almost all tissues and cells | peak concentration in plasma reached in ([2]; in vivo): about one | half-life ([2]; plasma): about three | side effects ([3]; daily total NAC dose, per os): virtually free of side effects | undesired side effect ([3]; general, doses in paracetamol poisoning about 40 g/day for 70 kg): virtually absent of undesired side effect | side effects ([3]; intravenous, higher limit 150 mg/kg/day): virtually no side effects
